Several values for one entry are separate records, joined by “and”; a condition that tells them apart may be missing. Identical values can stand only once. Ends that are not written are not given here.
How the values were obtained:
antibodies to HTLV-1 [1] = assay: ELISA immunologic reactivity of peptides gpAHTLV-1, gpBHTLV-1 and gpCHTLV-1 with human sera (Table 2); type: binding; details: for Mean O.D.405 of Negative Sera / cut off = Mean O.D.405 of Negative Sera + 6 × S.D.: negative sera of Table 2; for confirmed positive HTLV-1 serum samples reacted with peptide: reactive/tested, 6 HTLV-1 positive sera
Procedure: (§1) Polylysine at a concentration of 1 mg/ml was added to the microtiter plates and allowed to incubate for 30 minutes. The polylysine was then discarded and peptide gpAHTLV-1 was added to the wells in a concentration of 10 to 100 μg/ml for coating. After the peptide incubated in the well for a length of time sufficient to allow the peptide to become bonded to the well, the peptide solution was removed and a solution of glutaraldehyde, which stabilizes the peptide attachment to the wells, was added for 15 minutes. The glutaraldehyde solution was then removed, the wells washed with buffer, and a mixture of glycine and bovine serum albumin (BSA) was added which served to block unbound sites in the wells and minimize spurious reactions during the ELISA test per se. After a final washing step, the plates were ready to use.
(§2) A convenient variation of known ELISA methods was used with the microtiter plates prepared as above. Serum samples from individuals which had been diluted 1:50 in PBS (phosphate buffered saline) containing 0.05% polyoxyethylenesorbitan monolaurate (Tween 20) and 1% BSA were added to each well and allowed to incubate for 90 minutes at 37° C. in a humidified atmosphere. The diluted serum samples were then removed from the plates and the wells washed three times with PBS containing 0.05% Tween 20. A conjugated anti-human immunoglobulin (Ig) antibody was then added to the wells and allowed to incubate for 90 minutes. The conjugated antibody was produced in a goat or rabbit and was specific for human IgG, IgM, immunoglobulin light chains, or combinations thereof. Preferably, alkaline-phophatase conjugated anti-human IgG (from Dakopatts) diluted 1:500 for use in PBS containing 0.05% Tween 20 and 1% BSA was used in the ELISA. After the conjugate had incubated a sufficient length of time to react with bound human antibodies, the plates were washed three times as above. In order to detect antibodies to HTLV-1 in the human serum that react with the peptide gpAHTLV-1 used as the antigen, (i.e. positive reactions), a chromogenic substrate, alkaline phosphatase substrate (Sigma Cat. No. 104 tablets) dissolved in a Na carbonate/MgCl2 buffer and adjusted to a concentration of 1 μg/ml which is cleaved by the alkaline phosphatase enzyme attached to the anti-human Ig antibody to yield a colored product, was added. After incubation for approximately 40 minutes at room temperature, positive reactions indicated the presence of antibodies in the sample reactive with the antigen. A yellow to orange to reddish-brown color in each well indicating a positive reaction, was read in a spectrophotometer at 405 nm to quantify the reaction. Spectrophotometric readings were adjusted to correct for background reactions.
Peptides gpAHTLV-1, gpBHTLV-1, gpCHTLV-1, synthesized as described in Example 1, were run in parallel ELISA tests as described in Example 2 against 6 serum samples positive for antibodies to HTLV-1, 8 serum samples positive for antibodies to HIV-1 and 10 blood donor sera negative for HIV-1/HIV-2.

[2] = test system: HTLV-1 positive serum samples; assay: immunoreactivity screening of eight synthesized peptides A-H with HTLV-1 positive sera; type: binding, human
Text: The four peptides were selected from among eight different synthesized peptides designated A-H which correspond to the HTLV-1 envelope glycoprotein. These peptides were selected using various criteria similar to the selection of useful HIV-1 or HIV-2 peptides, e.g. proximity to or containing a cysteine residue (location of cysteine in similar proteins from related organisms being relatively invariant) and proximity to glycosylation sites. Although such criteria for selection of peptides can rule out potentially nonuseful peptides and indicate potentially useful peptides, further testing was required to identify which of the eight peptides would display immunoreactivity to HTLV-1 positive serum samples. The eight peptides were synthesized in the priority A through H with the […] believed to be least antigenic based on the above-criteria.

[3] = storage stability of peptide-coated microtiter plates; type: physicochemical; details: peptide-coated microtiter plates stored for several months
Procedure: as §1

antibodies to HTLV-1 [4] = assay: ELISA reactivity of gpHHTLV-1 with confirmed positive and true negative sera/CSF (Table 3); type: binding, human
Procedure: as §1, §2
Peptide gpHHTLV-1 having the amino acid sequence: […]OH was synthesized as described in Example 1 and used in an ELISA test as described in Example 2 to measure its immunologic reactivity against confirmed Japanese HTLV-sera and sera from U.S.A. and Europe from patients with Adult T-cell Leukemia Tropical Spastic Paraparesis (TSP) and cerebrospinal fluids (CSF).

antibodies to HTLV-1 [5] = assay: ELISA absorbance on Japanese HTLV-1 sera using gpHHTLV-1 (Table 4); type: binding, human; details: serum 1248, negative control, Western blot -; diluted 1/50
Procedure: as §1
(§3) A convenient variation of known ELISA methods was used with the microtiter plates prepared as above. […] A yellow to orange to reddish-brown color in each well indicating a positive reaction, was read in a spectrophotometer at 405 nm to quantify the reaction. Spectrophotometric readings were adjusted to correct for background reactions.
Absorbance values on Japanese HTLV-1 sera were measured in ELISA using gpHHTLV-1 as well as Du-Pont HTLV-1 ELISA and Western blot. […]

antibodies to HTLV-1 [6] = assay: ELISA absorbance on sera and CSF from patients with ATL and TSP using gpHHTLV-1 (Table 5); type: binding, human; details: neg CSF 8, 19, 21; diluted 1/20
Procedure: as §1, §3
Absorbance values on sera and CSF from patients with ATL and TSP were measured in ELISA using gpHHTLV-1 sera diluted 1/50, CSF sera was diluted 1/20.

HTLV-1 patient sera = details: reactive/tested; Palker et al., 1986; cited from earlier work
[7] = test system: sera from HTLV-1 positive patients; details: reactive/tested; Copeland et al., 1986; cited from earlier work

**Q.** Which “Mean O.D.405 of Negative Sera” value (antibodies to HTLV-1 [1]) does the source give for “Gly-Leu-Asp-Leu-Leu-Phe-Trp-Glu-Gln-Gly-Gly-Leu-Cys-Lys-Ala-Leu-Gln-Glu-Gln-Cys-Arg-Phe-Pro-Asn-Cys-OH (GLDLLFWEQGGLCKALQEQCRFPNC-OH; cysteine pairing not given here) [gpAHTLV-1]” here?
**A.** Its value is 0.124 O.D.405.

**Q.** What about the “cut off = Mean O.D.405 of Negative Sera + 6 × S.D.” value (antibodies to HTLV-1 [1]) of the same substance?
**A.** The value was 0.490 O.D.405.

**Q.** And the “confirmed positive HTLV-1 serum samples reacted with peptide” value (antibodies to HTLV-1 [1])?
**A.** Its value is 6/6.

**Q.** And the “usefulness for diagnosis of HTLV-1 infection (in words)” value (“usefulness for diagnosis” for short) [2]?
**A.** The value was “useful for diagnosis of HTLV-1 infection”.

**Q.** And the “antigenic activity of coated peptide after storage (in words)” value [3]?
**A.** Its value is “without any decrease in antigenic activity”.

**Q.** With “Leu-Asn-Thr-Glu-Pro-Ser-Gln-Leu-Pro-Pro-Thr-Ala-Pro-Pro-Leu-Leu-Pro-His-Ser-Asn-Leu-Asp-His-Ile-Cys-OH (LNTEPSQLPPTAPPLLPHSNLDHIC-OH) [gpHHTLV-1]” as the substance, how does the “Positive in ELISA” value (antibodies to HTLV-1 [4]; ATL CSF, positive/tested) read?
**A.** The value was 1/1.

**Q.** What about the “Positive in ELISA (percent)” value (antibodies to HTLV-1 [4]; Japanese HTLV-1 sera) of the same substance?
**A.** Its value is 69%.

**Q.** And the “Positive in ELISA” value (antibodies to HTLV-1 [4]; Japanese HTLV-1 sera, positive/tested)?
**A.** The value was 22/32.

**Q.** And the “Positive in ELISA” value (antibodies to HTLV-1 [4]; TSP CSF, positive/tested)?
**A.** Its value is 4/4.

**Q.** And the “Positive in ELISA” value (antibodies to HTLV-1 [4]; TSP sera, positive/tested)?
**A.** Its value is 4/4.

**Q.** And the “known positive sera confirmed HTLV-1 positive (in words)” value (antibodies to HTLV-1 [4]; Table 3 as summarised in text)?
**A.** The value was “all known positive sera were confirmed HTLV-1 positive”.

**Q.** What about the “Positive in ELISA” value (antibodies to HTLV-1 [4]; true negative: 4 EB virus IgM positive sera) of the same substance?
**A.** The value was 0/4.

**Q.** And the “Positive in ELISA” value (antibodies to HTLV-1 [4]; true negative: 4 Leukemia patients sera)?
**A.** The value was 0/4.

**Q.** And the “Positive in ELISA” value (antibodies to HTLV-1 [4]; true negative: 4 Rheumatoid factor positive sera)?
**A.** The value was 0/4.

**Q.** What about the “Positive in ELISA” value (antibodies to HTLV-1 [4]; true negative: 4 Transplant recipients sera) of the same substance?
**A.** Its value is 0/4.

**Q.** And the “Positive in ELISA” value (antibodies to HTLV-1 [4]; true negative: 8 CSF (aseptic meningitis))?
**A.** The value was 0/8.

**Q.** And the “Positive in ELISA” value (antibodies to HTLV-1 [4]; true negative: 8 HIV-2 positive sera)?
**A.** The value was 0/8.

**Q.** What about the “Positive in ELISA” value (antibodies to HTLV-1 [4]; true negative: 28 blood donor sera) of the same substance?
**A.** The value was 0/28.

**Q.** And the “Positive in ELISA” value (antibodies to HTLV-1 [4]; true negative: 30 HIV-1 positive sera)?
**A.** The value was 0/30.

**Q.** And the “Absorbance values in gpHHTLV-1 ELISA” value (antibodies to HTLV-1 [5])?
**A.** The value was 0.109.

**Q.** What about the “gpHHTLV-1 ELISA absorbance” value (antibodies to HTLV-1 [6]) of the same substance?
**A.** Its value is 0.033 and 0.039 and 0.056.

**Q.** What about the “usefulness for diagnosis” value [2] of the same substance?
**A.** Its value is “useful for diagnosis of HTLV-1 infection”.

**Q.** With PYVEPTAPQVL [SP-71] as the substance, how does the “HTLV-1 patient sera reacting in RIA” value (HTLV-1 patient sera) read?
**A.** Its value is 8/9.

**Q.** With “Pro-Pro-Phe-Ser-Leu-Ser-Pro-Val-Pro-Thr-Leu-NH2 (PPFSLSPVPTL-NH2) [SP-70]” as the substance, how does the “sera from HTLV-1 positive patients reacting” value [7] read?
**A.** Its value is 4/12.

**Q.** Which results are given for “X-Trp-Thr-His-Cys-Phe-Asp-Pro-Gln-Ile-Gln--Ala-Ile-Val-Ser-Ser-Pro-Cys-His-Asn-Ile-Leu-Y-Z (WTHCFDPQIQAIVSSPCHNIL; not fully specified (N-terminus, C-terminus); cysteine pairing not given here; also: end groups X, Y, Z left open in the general formula) [gpBHTLV-1]”?
**A.** Mean O.D.405 of Negative Sera (antibodies to HTLV-1 [1]): 0.088 O.D.405; cut off = Mean O.D.405 of Negative Sera + 6 × S.D. (antibodies to HTLV-1 [1]): 0.298 O.D.405; confirmed positive HTLV-1 serum samples reacted with peptide (antibodies to HTLV-1 [1]): 5/6; usefulness for diagnosis of HTLV-1 infection (in words) [2]: useful for diagnosis of HTLV-1 infection

**Q.** For “X-Tyr-Thr-Cys-Ile-Val-Cys-Ile-Asp-Arg-Ala-Ser-Leu-Ser-Thr-Trp-His-Val-Leu- Tyr-Ser-Pro-Y-Z (YTCIVCIDRASLSTWHVLYSP; not fully specified (N-terminus, C-terminus); cysteine pairing not given here; also: end groups X, Y, Z left open in the general formula) [gpCHTLV-1]”, which “Mean O.D.405 of Negative Sera” value (antibodies to HTLV-1 [1]) is on record?
**A.** The value was 0.116 O.D.405.

**Q.** And the “cut off = Mean O.D.405 of Negative Sera + 6 × S.D.” value (antibodies to HTLV-1 [1])?
**A.** The value was 0.368 O.D.405.

**Q.** What about the “confirmed positive HTLV-1 serum samples reacted with peptide” value (antibodies to HTLV-1 [1]) of the same substance?
**A.** Its value is 5/6.

**Q.** What about the “usefulness for diagnosis” value [2] of the same substance?
**A.** The value was “useful for diagnosis of HTLV-1 infection”.

Reference: US5017687A, “Peptides for the detection of HTLV-1 infection” (Virovahl, S.A., priority 1988, dated 1991)
